pIC50: −log10 of the molar value. The source made the active and inactive calls. The rule behind the calls is not given here.
Columns and labels:
HCT-116 [1] = assay: Photocytotoxicity against human HCT116 cells assessed as growth inhibition irradiated at 350 nm at 4, 24, 48 hrs post compound addition for 5 mins measured after 72 hrs by MTT assay; type: functional, cell-based; settings: HCT-116, light or radiation study
[2] = Dark toxicity against human HCT116 cells after 72 hrs by MTT assay; type: cell-based, HCT-116
HCT-116 [3] = assay: Photocytotoxicity against human HCT116 cells assessed as growth inhibition irradiated at 420 nm at 4, 24, 48 hrs post compound addition for 5 mins measured after 72 hrs by MTT assay; type: functional, cell-based; settings: HCT-116, light or radiation study
[4] = Dark toxicity against human H460 cells after 72 hrs by MTT assay; type: cell-based, NCI-H460
NCI-H460 [5] = assay: Photocytotoxicity against human H460 cells assessed as growth inhibition irradiated at 350 nm at 4, 24, 48 hrs post compound addition for 5 mins measured after 72 hrs by MTT assay; type: functional, cell-based; settings: NCI-H460, light or radiation study
NCI-H460 [6] = assay: Photocytotoxicity against human H460 cells assessed as growth inhibition irradiated at 420 nm at 4, 24, 48 hrs post compound addition for 5 mins measured after 72 hrs by MTT assay; type: functional, cell-based; settings: NCI-H460, light or radiation study
[7] = Dark toxicity against human MCF7 cells after 72 hrs by MTT assay; type: cell-based
MCF7 [8] = assay: Photocytotoxicity against human MCF7 cells assessed as growth inhibition irradiated at 350 nm at 4, 24, 48 hrs post compound addition for 5 mins measured after 72 hrs by MTT assay; type: functional, cell-based; settings: MCF7, light or radiation study
MCF7 [9] = assay: Photocytotoxicity against human MCF7 cells assessed as growth inhibition irradiated at 420 nm at 4, 24, 48 hrs post compound addition for 5 mins measured after 72 hrs by MTT assay; type: functional, cell-based; settings: MCF7, light or radiation study
[10] = Dark toxicity against human SUM159 cells after 72 hrs by MTT assay; type: cell-based, SUM-159-PT
SUM-159-PT [11] = assay: Photocytotoxicity against human SUM159 cells assessed as growth inhibition irradiated at 420 nm at 4, 24, 48 hrs post compound addition for 5 mins measured after 72 hrs by MTT assay; type: functional, cell-based; settings: light or radiation study
[12] = Dark toxicity against HMLE-shGFP cells after 72 hrs by MTT assay; type: cell-based; settings: human
[13] = Photocytotoxicity against HMLE-shGFP cells assessed as growth inhibition irradiated at 350 nm at 4, 24, 48 hrs post compound addition for 5 mins measured after 72 hrs by MTT assay; type: cell-based; settings: Homo sapiens, light or radiation study
[14] = Photocytotoxicity against HMLE-shGFP cells assessed as growth inhibition irradiated at 420 nm at 4, 24, 48 hrs post compound addition for 5 mins measured after 72 hrs by MTT assay; type: cell-based; settings: Homo sapiens, light or radiation study
[15] = Dark toxicity against HMLE-shEcad cells after 72 hrs by MTT assay; type: cell-based; settings: human
[16] = Photocytotoxicity against HMLE-shEcad cells assessed as growth inhibition irradiated at 350 nm at 4, 24, 48 hrs post compound addition for 5 mins measured after 72 hrs by MTT assay; type: functional, cell-based; settings: Homo sapiens, light or radiation study
[17] = Photocytotoxicity against HMLE-shEcad cells assessed as growth inhibition irradiated at 420 nm at 4, 24, 48 hrs post compound addition for 5 mins measured after 72 hrs by MTT assay; type: functional, cell-based; settings: Homo sapiens, light or radiation study
HMLE [18] = assay: Anticlonogenic activity against HMLE-shEcad cells at 1 uM irradiated at 350 nm at 4 hrs post compound addition for 5 mins measured after 24 hrs by crystal violet staining-based assay; type: functional, cell-based; settings: Homo sapiens
[19] = Anticlonogenic activity against HMLE-shGFP cells at 1 uM irradiated at 350 nm at 4 hrs post compound addition for 5 mins measured after 24 hrs by crystal violet staining-based assay; type: cell-based; settings: human
[20] = Cell cycle arrest in HMLE-shEcad cells at 1 to 5 uM after 24 to 48 hrs in absence of irradiation by propidium iodide staining-based flow cytometric method; settings: human
[21] = Cell cycle arrest in HMLE-shGFP cells assessed as delay in G1 phase at 5 uM after 24 to 48 hrs in absence of irradiation by propidium iodide staining-based flow cytometric method; settings: human
HMLE [22] = assay: Cell cycle arrest in HMLE-shEcad cells assessed as delay in S/G2 phase at 5 uM irradiated at 420 nm at 4 hrs post compound addition for 5 mins measured after 24 to 48 hrs by propidium iodide staining-based flow cytometric method; type: functional; settings: Homo sapiens
[23] = Cell cycle arrest in HMLE-shGFP cells assessed as delay in S/G2 phase at 5 uM irradiated at 420 nm at 4 hrs post compound addition for 5 mins measured after 24 to 48 hrs by propidium iodide staining-based flow cytometric method; settings: human
[24] = Cytotoxicity against HMLE-shGFP cells at 10 uM irradiated at 420 nm at 4 hrs post compound addition for 5 mins measured after 48 hrs by propidium iodide staining-based flow cytometric method; type: cell-based; settings: human
HMLE [25] = assay: Cytotoxicity against HMLE-shEcad cells at 10 uM irradiated at 420 nm at 4 hrs post compound addition for 5 mins measured after 48 hrs by propidium iodide staining-based flow cytometric method; type: functional, cell-based; settings: Homo sapiens
MCF7 [26] = assay: Cell cycle arrest in human MCF7 cells in presence of irradiation; type: functional, cell-based
SUM-159-PT [27] = assay: Cell cycle arrest in human SUM159 cells in presence of irradiation; type: functional, cell-based
[28] = Drug uptake in cytoplasm of HMLE-shEcad cells at 5 uM in absence of irradiation measured after 2 to 3 hrs by confocal microscopic method; type: ADME, subcellular; settings: human
[29] = Drug uptake in nucleus of HMLE-shEcad cells at 5 uM in absence of irradiation measured after 2 to 3 hrs by confocal microscopic method; type: ADME, subcellular; settings: human
[30] = Drug uptake in cytoplasm of HMLE-shGFP cells at 5 uM irradiated at 420 nm for 5 mins measured after 2 to 3 hrs by confocal microscopic method; type: ADME, subcellular; settings: human
[31] = Drug uptake in nucleus of HMLE-shGFP cells at 5 uM irradiated at 420 nm for 5 mins measured after 2 to 3 hrs by confocal microscopic method; type: ADME, subcellular; settings: human
[32] = Drug uptake in plasma membranes of HMLE-shGFP cells at 5 uM irradiated at 420 nm for 5 mins measured after 2 to 3 hrs by confocal microscopic method; type: ADME, cell membranes, Plasma membrane; settings: human
[33] = Drug uptake in intracellular membranes of HMLE-shGFP cells at 5 uM irradiated at 420 nm for 5 mins measured after 2 to 3 hrs by confocal microscopic method; type: ADME, cell membranes, Intracellular membrane; settings: human
[34] = Induction of cell damage in HMLE-shGFP cells assessed as uncoupling of cytoskeleton from plasma membrane at 5 uM irradiated at 420 nm for 5 mins measured after 2 to 3 hrs by confocal microscopic method; type: cell-based; settings: human
[35] = Induction of cell damage in HMLE-shGFP cells assessed as cell swelling at 5 uM irradiated at 420 nm for 5 mins measured after 2 to 3 hrs by confocal microscopic method; type: cell-based; settings: human
[36] = Induction of cell damage in HMLE-shGFP cells assessed as degradation of internal structure at 5 uM irradiated at 420 nm for 5 mins measured after 2 to 3 hrs by confocal microscopic method; type: cell-based; settings: human

- Drug uptake [28]: Active
- Drug uptake [29]: Not Active
- Drug uptake [30]: Active
- Drug uptake [31]: Not Active
- Drug uptake [32]: Active
- Drug uptake [33]: Active
Structure (SMILES): Oc1cc2cc3ccccc3cc2cc1C(O)(c1ccccc1)c1ccccc1
- pIC50 (HCT-116 [1]): 5.70
- IC50 at 72 h [2]: 21 µM
- pIC50 (HCT-116 [3]): 5.70
- IC50 at 72 h [4]: 19 µM
- pIC50 (NCI-H460 [5]): 5.52
- pIC50 (NCI-H460 [6]): 5.70
- IC50 at 72 h [7]: 20 µM
- pIC50 (MCF7 [8]): 5.40
- pIC50 (MCF7 [9]): 5.70
- IC50 at 72 h [10]: 4 µM
- pIC50 (SUM-159-PT [11]): 6.00
- IC50 at 72 h [12]: 6 µM
- pIC50 [13]: 6.00
- pIC50 [14]: 5.70
- IC50 at 72 h [15]: 2000 nM
- pIC50 [16]: 5.70
- pIC50 [17]: 5.70
- Activity (HMLE [18]): Active
- Activity [19]: Toxic
- Activity [20]: Non-Toxic
- Activity [21]: Toxic
- Activity (HMLE [22]): Active
- Activity [23]: Toxic
- Activity [24]: Toxic
- Activity (HMLE [25]): Active
- Activity (MCF7 [26]): inactive
- Activity (SUM-159-PT [27]): inactive
- Activity [34]: Toxic
- Activity [35]: Toxic
- Activity [36]: Toxic

Source: ChEMBL document CHEMBL4138121, “Selective photocytotoxicity of anthrols on cancer stem-like cells: The effect of quinone methides or reactive oxygen species” (Eur J Med Chem, 2017)
